# Assay: xn = mol fraction of the nth substance listed
# Conditions: 101 kPa
structure (smiles),measurement,setting,value
CC[n+]1ccn(C)c1.F[B-](F)(F)F + CC(=O)N(C)C,viscosity,"303.15 K, x2 = 0.0996",22.75 mPa·s
same,viscosity,"303.15 K, x2 = 0.2995",13.99 mPa·s
same,viscosity,"303.15 K, x2 = 0.3989",10.62 mPa·s
same,viscosity,"303.15 K, x2 = 0.5005",7.83 mPa·s
same,viscosity,"303.15 K, x2 = 0.8994",1.549 mPa·s
same,viscosity,"313.15 K, x2 = 0",20.41 mPa·s
same,viscosity,"313.15 K, x2 = 0.0996",16.86 mPa·s
same,viscosity,"313.15 K, x2 = 0.1998",13.59 mPa·s
same,viscosity,"313.15 K, x2 = 0.2995",10.65 mPa·s
same,viscosity,"313.15 K, x2 = 0.3989",8.23 mPa·s
same,viscosity,"313.15 K, x2 = 0.6996",3.147 mPa·s
same,viscosity,"313.15 K, x2 = 0.8001",2.092 mPa·s
same,viscosity,"313.15 K, x2 = 0.8994",1.328 mPa·s
same,viscosity,"323.15 K, x2 = 0.0996",12.8 mPa·s
same,viscosity,"323.15 K, x2 = 0.1998",10.45 mPa·s
same,viscosity,"323.15 K, x2 = 0.3989",6.555 mPa·s
same,viscosity,"323.15 K, x2 = 0.5005",4.982 mPa·s
same,viscosity,"323.15 K, x2 = 0.6",3.69 mPa·s
same,viscosity,"323.15 K, x2 = 0.6996",2.638 mPa·s
same,viscosity,"323.15 K, x2 = 0.8001",1.79 mPa·s
same,viscosity,"323.15 K, x2 = 0.8994",1.154 mPa·s
same,viscosity,"333.15 K, x2 = 0",12.08 mPa·s
same,viscosity,"333.15 K, x2 = 0.0996",10.09 mPa·s
same,viscosity,"333.15 K, x2 = 0.1998",8.31 mPa·s
same,viscosity,"333.15 K, x2 = 0.5005",4.122 mPa·s
same,viscosity,"333.15 K, x2 = 0.6",3.115 mPa·s
same,viscosity,"333.15 K, x2 = 0.6996",2.252 mPa·s
same,viscosity,"333.15 K, x2 = 0.8001",1.563 mPa·s
same,viscosity,"333.15 K, x2 = 0.8994",1.029 mPa·s
CC(=O)N(C)C + CC[n+]1ccn(C)c1.F[B-](F)(F)F,viscosity,"303.15 K, x1 = 1",0.862 mPa·s
same,viscosity,"313.15 K, x1 = 1",0.758 mPa·s
same,viscosity,"323.15 K, x1 = 1",0.673 mPa·s
same,viscosity,"333.15 K, x1 = 1",0.602 mPa·s
CN(C)C=O + CC[n+]1ccn(C)c1.F[B-](F)(F)F,viscosity,"303.15 K, x1 = 1",0.744 mPa·s
same,viscosity,"323.15 K, x1 = 1",0.6 mPa·s
CS(C)=O + CC[n+]1ccn(C)c1.F[B-](F)(F)F,viscosity,"303.15 K, x1 = 1",1.784 mPa·s
same,viscosity,"313.15 K, x1 = 1",1.498 mPa·s
same,viscosity,"323.15 K, x1 = 1",1.27 mPa·s
same,viscosity,"333.15 K, x1 = 1",1.095 mPa·s
CC[n+]1ccn(C)c1.F[B-](F)(F)F + CN(C)C=O,viscosity,"303.15 K, x2 = 0",28 mPa·s
same,viscosity,"303.15 K, x2 = 0.1016",21.61 mPa·s
same,viscosity,"303.15 K, x2 = 0.2994",12.55 mPa·s
same,viscosity,"303.15 K, x2 = 0.3987",9.33 mPa·s
same,viscosity,"303.15 K, x2 = 0.5005",6.703 mPa·s
same,viscosity,"303.15 K, x2 = 0.6004",4.72 mPa·s
same,viscosity,"303.15 K, x2 = 0.7",3.214 mPa·s
same,viscosity,"303.15 K, x2 = 0.7997",2.114 mPa·s
same,viscosity,"303.15 K, x2 = 0.8999",1.305 mPa·s
same,viscosity,"313.15 K, x2 = 0.1016",16.03 mPa·s
same,viscosity,"313.15 K, x2 = 0.2016",12.53 mPa·s
same,viscosity,"313.15 K, x2 = 0.2994",9.74 mPa·s
same,viscosity,"313.15 K, x2 = 0.6004",3.867 mPa·s
same,viscosity,"313.15 K, x2 = 0.7",2.689 mPa·s
same,viscosity,"313.15 K, x2 = 0.8999",1.144 mPa·s
same,viscosity,"323.15 K, x2 = 0.1016",12.29 mPa·s
same,viscosity,"323.15 K, x2 = 0.2016",9.8 mPa·s
same,viscosity,"323.15 K, x2 = 0.3987",5.935 mPa·s
same,viscosity,"323.15 K, x2 = 0.7",2.293 mPa·s
same,viscosity,"323.15 K, x2 = 0.7997",1.567 mPa·s
same,viscosity,"333.15 K, x2 = 0",12.08 mPa·s
same,viscosity,"333.15 K, x2 = 0.1016",9.72 mPa·s
same,viscosity,"333.15 K, x2 = 0.2016",7.83 mPa·s
same,viscosity,"333.15 K, x2 = 0.2994",6.291 mPa·s
same,viscosity,"333.15 K, x2 = 0.3987",4.93 mPa·s
same,viscosity,"333.15 K, x2 = 0.5005",3.744 mPa·s
same,viscosity,"333.15 K, x2 = 0.6004",2.775 mPa·s
same,viscosity,"333.15 K, x2 = 0.7",1.993 mPa·s
same,viscosity,"333.15 K, x2 = 0.7997",1.387 mPa·s
same,viscosity,"333.15 K, x2 = 0.8999",0.899 mPa·s
CC[n+]1ccn(C)c1.F[B-](F)(F)F + CS(C)=O,viscosity,"303.15 K, x2 = 0",28 mPa·s
same,viscosity,"303.15 K, x2 = 0.1001",24.39 mPa·s
same,viscosity,"303.15 K, x2 = 0.4",14.08 mPa·s
same,viscosity,"303.15 K, x2 = 0.4996",11.13 mPa·s
same,viscosity,"303.15 K, x2 = 0.7002",6.249 mPa·s
same,viscosity,"303.15 K, x2 = 0.9002",2.928 mPa·s
same,viscosity,"313.15 K, x2 = 0",20.41 mPa·s
same,viscosity,"313.15 K, x2 = 0.1001",17.83 mPa·s
same,viscosity,"313.15 K, x2 = 0.2007",15.25 mPa·s
same,viscosity,"313.15 K, x2 = 0.4",10.59 mPa·s
same,viscosity,"313.15 K, x2 = 0.4996",8.46 mPa·s
same,viscosity,"313.15 K, x2 = 0.6002",6.575 mPa·s
same,viscosity,"313.15 K, x2 = 0.7002",4.936 mPa·s
same,viscosity,"313.15 K, x2 = 0.7996",3.515 mPa·s
same,viscosity,"313.15 K, x2 = 0.9002",2.385 mPa·s
same,viscosity,"323.15 K, x2 = 0",15.35 mPa·s
same,viscosity,"323.15 K, x2 = 0.1001",13.54 mPa·s
same,viscosity,"323.15 K, x2 = 0.2007",11.62 mPa·s
same,viscosity,"323.15 K, x2 = 0.2996",9.91 mPa·s
same,viscosity,"323.15 K, x2 = 0.4996",6.667 mPa·s
same,viscosity,"323.15 K, x2 = 0.6002",5.296 mPa·s
same,viscosity,"323.15 K, x2 = 0.7002",3.971 mPa·s
same,viscosity,"323.15 K, x2 = 0.7996",2.893 mPa·s
same,viscosity,"333.15 K, x2 = 0",12.08 mPa·s
same,viscosity,"333.15 K, x2 = 0.1001",10.64 mPa·s
same,viscosity,"333.15 K, x2 = 0.2007",9.18 mPa·s
same,viscosity,"333.15 K, x2 = 0.2996",7.87 mPa·s
same,viscosity,"333.15 K, x2 = 0.4",6.571 mPa·s
same,viscosity,"333.15 K, x2 = 0.4996",5.382 mPa·s
same,viscosity,"333.15 K, x2 = 0.6002",4.335 mPa·s
same,viscosity,"333.15 K, x2 = 0.7002",3.294 mPa·s
same,viscosity,"333.15 K, x2 = 0.7996",2.438 mPa·s
